Source: US4505905A, “Cyclobutanone antibacterials” (E. I. Du Pont de Nemours and Company, priority 1982, dated 1985)
Converted amounts (≈) assume the structure as drawn. Where two headings read alike, the source gives them in different places.

What was measured:
[1] = system: Bacillus cereus var. mycoides; format: cell-based, Bacillus cereus var. mycoides: ATCC 11778; settings: Table 6; for Effective Combination Concentrations: Units/mL Benzyl Penicillin: concentration of benzyl penicillin combined with the compound; for Effective Combination Concentrations: μg/mL Compound: concentration of compound in combination with benzyl penicillin
[2] = system: penicillin-resistant Staphylococcus aureus strain; test: Intrinsic antibacterial activity, microdilution method (MIC, compound alone); settings: for MIC: Staphylococcus aureus
[3] = system: Bacillus cereus var. mycoides; test: microbe, parasite or virus in culture; format: cell-based, Bacillus cereus var. mycoides: ATCC 11778; settings: for MIC: Bacillus cereus, read-out: MIC: μg/mL Compound Alone; for active against B. cereus var. mycoides: Table 6
[4] = system: penicillin-resistant Staphylococcus aureus strain; test: Antibacterial activity in combination with benzyl penicillin, modified microdilution technique; settings: Table 4; for Effective Combination Concentrations: Units/mL Benzyl Penicillin: concentration of benzyl penicillin combined with the compound; for Effective Combination Concentrations: μg/mL Compound: concentration of compound in combination with benzyl penicillin
[5] = target: Pencillinase Type I (a β-lactamase from Bacillus cereus) (Bacillus cereus, UniProt P00809); test: Inhibition of the hydrolysis of penicillin G by Pencillinase Type I; format: biochemical; settings: penicillin G 0.6 mg/mL; enzyme 2.8 μg/mL; inhibitor 75 μg/mL; read-out: percent inhibition of hydrolysis of penicillin G
[6] = system: Penicillin Gresistant strain of Staphylococcus Aureus; test: Survival of mice infected with a Penicillin G resistant strain of Staphylococcus Aureus; format: in vivo
Description: ^3 In mice infected with a Penicillin Gresistant strain of
Staphylococcus Aureus, the orally administered combination of 32, at 125
mg/kg of body weight, and Penicillin G, at 80 mg/kg of body weight, […]

[7] = read-out: MIC: μg/mL Compound Alone

Pencillinase Type I (a β-lactamase from Bacillus cereus), sequence (P00809 28-306): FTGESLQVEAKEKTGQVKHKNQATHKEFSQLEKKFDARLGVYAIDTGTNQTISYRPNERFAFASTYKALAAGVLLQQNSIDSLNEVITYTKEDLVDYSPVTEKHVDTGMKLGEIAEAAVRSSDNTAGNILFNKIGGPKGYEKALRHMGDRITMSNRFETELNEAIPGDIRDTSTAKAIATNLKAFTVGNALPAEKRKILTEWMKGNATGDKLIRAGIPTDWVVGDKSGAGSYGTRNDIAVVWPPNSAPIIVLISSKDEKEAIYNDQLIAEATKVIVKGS

Row | Compound | MIC [2, 7] | Effective Combination Concentrations: Units/mL Benzyl Penicillin [4] | Effective Combination Concentrations: μg/mL Compound [4] | other results
1 | C[C@H](O)[C@H]1C(=O)[C@@H]2C(C(=O)OC(c3ccccc3)c3ccccc3)=C([S+]([O-])c3ccccc3)C[C@@H]21 (relative stereo) [Compound 35, 3-Phenylsulfinyl-6-(1-hydroxyethyl)-7-oxobicyclo[3.2.0]hept-2-en-2-carboxylic Acid, Diphenylmethyl Ester] | 50 µg/mL (≈ 103 µM) | 10 Units/mL | 6.3 µg/mL | Effective Combination Concentrations: Units/mL Benzyl Penicillin [1]: 25 Units/mL; Effective Combination Concentrations: μg/mL Compound [1]: 3.2 µg/mL; MIC [3]: 25 µg/mL (≈ 51.4 µM); active against B. cereus var. mycoides [3]: active
2 | CC(=O)NCCSC1=C(C(=O)OC(c2ccccc2)c2ccccc2)C2C(=O)[C@H]([C@H](C)O)[C@H]2C1 (relative stereo) [Compound 76, 3-(2-Acetamidoethylthio)-(1-hydroxyethyl)-7-oxobicyclo[3.2.0]hept-2-en-2-carboxylic Acid, Diphenylmethyl Ester] | > 100 µg/mL | 10 Units/mL | 50 µg/mL | –
3 | CC(=O)NCC[S+]([O-])C1=C(C(=O)OC(c2ccccc2)c2ccccc2)[C@H]2C(=O)[C@H]([C@H](C)O)[C@H]2C1 (relative stereo) [Compound 78, 3-(2-Acetamidoethylsulfinyl)-6-(1-hydroxyethyl)-7-oxobicyclo[3.2.0]hept-2-en-2-carboxylic Acid, Diphenylmethyl Ester] | 50 µg/mL (≈ 101 µM) | 20 Units/mL | 12.5 µg/mL | –
4 | O=C(O)C1=C([S+]([O-])c2ccc([N+](=O)[O-])cc2)CC2CC(=O)C12 (stereo not drawn) [32+] | > 100 µg/mL | 20 Units/mL | 12.5 µg/mL | –
5 | O=C(OC(c1ccccc1)c1ccccc1)C1=CCC2CC(=O)C12 (stereo not drawn) [Compound 13, 7-Oxobicyclo[3.2.0]hept-2-en-2-carboxylic Acid, Diphenylmethyl Ester] | > 100 µg/mL | 10 Units/mL | 12.5 µg/mL | –
6 | O=C(OC(c1ccccc1)c1ccccc1)C1=C([S+]([O-])c2ccccc2)CC2CC(=O)C12 (stereo not drawn) [Compound 16, 3-Phenylsulfinyl-7-oxobicyclo[3.2.0]hept-2-en-2-carboxylic Acid, Diphenylmethyl Ester] | – | – | – | MIC ([2]; read-out: Microdilution MIC): 50 µg/mL (≈ 113 µM)
7 | O=C(OC(c1ccccc1)c1ccccc1)C1=C(S(=O)(=O)c2ccccc2)CC2CC(=O)C12 (stereo not drawn) [Compound 20, 3-Phenylsulfonyl-7-oxobicyclo[3.2.0]hept-2-en-2-carboxylic Acid, Diphenylmethyl Ester] | – | – | – | MIC ([2]; read-out: Microdilution MIC): 100 µg/mL (≈ 218 µM)
8 | CC(=O)NCCSC1=C(C(=O)OC(c2ccccc2)c2ccccc2)C2C(=O)CC2C1 (stereo not drawn) [Compound 24, 3-(2'-Acetamidoethylthio)-7-oxobicyclo-[3.2.0]hept-2-en-2-carboxylic Acid, Diphenylmethyl Ester] | > 100 µg/mL | 20 Units/mL | 12.5 µg/mL | inhibition at 75 µg/mL [5]: 30 to 40%
9 | CC(=O)NCCSC1=C(C(=O)O)C2C(=O)CC2C1 (stereo not drawn) [Compound 25, 3-(2'-Acetamidoethylthio)-7-oxobicyclo[3.2.0]hept-2-en-2-carboxylic Acid] | – | – | – | inhibition at 75 µg/mL [5]: 10 to 15%
10 | CC(=O)NCC[S+]([O-])C1=C(C(=O)OC(c2ccccc2)c2ccccc2)C2C(=O)CC2C1 (stereo not drawn) [Compound 26] | – | – | – | MIC ([2]; read-out: Microdilution MIC): 100 µg/mL (≈ 221 µM)
11 | CC(=O)NCCSC1=C(C(=O)OCc2cccc3ccccc23)C2C(=O)CC2C1 (stereo not drawn) [Compound 28, 3-(2'-Acetamidoethylthio)-7-oxobicyclo[3.2.0]hept-2-en-2-carboxylic Acid, 1-Naphthylmethyl Ester] | > 100 µg/mL | 20 Units/mL | 25 µg/mL | –
12 | CC(=O)NCC[S+]([O-])C1=C(C(=O)OCc2cccc3ccccc23)C2C(=O)CC2C1 (stereo not drawn) [Compound 29, 3-(2'-Acetamidoethylsulfinyl)-7-oxobicyclo[3.2.0]hept-2-en-2-carboxylic Acid, 1-Naphthylmethyl Ester] | 100 µg/mL (≈ 235 µM) | 20 Units/mL | 25 µg/mL | –
13 | O=C(OC(c1ccccc1)c1ccccc1)C1=C([S+]([O-])c2ccc([N+](=O)[O-])cc2)CC2CC(=O)C12 (stereo not drawn) [Compound 32, 3-(p-Nitrophenylsulfinyl)-7-oxobicyclo[3.2.0]hept-2-en-2-carboxylic Acid, Diphenylmethyl Ester] | 25 µg/mL (≈ 51.3 µM) | 5.0 Units/mL | 6.3 µg/mL | Effective Combination Concentrations: Units/mL Benzyl Penicillin [1]: 25 Units/mL; Effective Combination Concentrations: μg/mL Compound [1]: 1.5 µg/mL; MIC [3]: 6.3 µg/mL (≈ 12.9 µM); active against B. cereus var. mycoides [3]: active; Effective Combination Concentrations: Units/mL Benzyl Penicillin ([4]; listed as 32*): 10 Units/mL; survival rate ([6]; compound by itself at 500 mg/kg): 16.7%; survival ([6]; oral combination of 32 at 125 mg/kg and Penicillin G at 80 mg/kg): 83.3%
14 | O=C(OC(c1ccccc1)c1ccccc1)C1=C([S+]([O-])CCNC(=O)C(c2ccccc2)c2ccccc2)CC2CC(=O)C12 (stereo not drawn) [Compound 64] | > 100 µg/mL | 20 Units/mL | 3.2 µg/mL | –
15 | O=C(OC(c1ccccc1)c1ccccc1)C1=C(S(=O)(=O)c2ccc([N+](=O)[O-])cc2)CC2CC(=O)C12 (stereo not drawn) [Compound 73, 3-(p-Nitrophenylsulfonyl)-7-oxobicyclo[3.2.0]hept-2-en-2-carboxylic Acid, Diphenylmethyl Ester] | 50 µg/mL (≈ 99.3 µM) | 1.25 Units/mL | 25 µg/mL | –
16 | O=C(OC(c1ccccc1)c1ccccc1)C1=CCC2C1C(=O)C2(Cl)C(O)c1ccccc1 (stereo not drawn) [Compound 75, 6-Chloro-6-(α'-hydroxybenzyl)-7-oxobicyclo[3.2.0]hept-2-en-2-carboxylic Acid, Diphenylmethyl Ester] | > 100 µg/mL | 10 Units/mL | 6.3 µg/mL | –
17 | COC1(OC)C2C(C(=O)OC(c3ccccc3)c3ccccc3)=C(S(=O)(=O)c3ccccc3)CC2C1C(C)O (stereo not drawn) [Compound 79, 3-Phenylsulfonyl-6-(1-hydroxyethyl)-7,7-dimethoxybicyclo[3.2.0]hept-2-en-2-carboxylic Acid, Diphenylmethyl Ester] | > 100 µg/mL | 20 Units/mL | 12.5 µg/mL | –
18 | CC1(C)S[C@@H]2[C@H](NC(=O)Cc3ccccc3)C(=O)N2[C@H]1C(=O)O [benzyl penicillin, reference compound] | – | – | – | Minimum Inhibitory Concentration of Benzyl Penicillin ([2]; Table 4 footnote, alone): 100 units/mL; minimum inhibitory concentration (MIC) of benzyl penicillin ([2]; test isolate, benzyl penicillin alone): > 100 units per mL; Benzyl penicillin MIC ([3]; Table 6 footnote, alone): 100 units/mL; survival ([6]; Penicillin G by itself, 80 mg/kg): 33.3%
19 | Cc1onc(-c2ccccc2Cl)c1C(=O)N[C@@H]1C(=O)N2[C@@H]1SC(C)(C)[C@@H]2C(=O)O [cloxacillin, reference compound] | – | – | – | inhibition at 75 µg/mL [5]: 10 to 15%
